In patent US11098041B2 (Merck Patent GmbH, priority 2014, dated 2021):

What was measured:
full-length human BTK = full-length human BTK (Homo sapiens (Human), UniProt Q06187); test: Assay A: microfluidic off-chip mobility shift assay against BTK enzyme; assay type: biochemical
[1] = target: BTK C481S (His-TEV-hsBTK(328-659)(C481S)) (Homo sapiens (Human), UniProt Q06187, C481S); test: Assay B: microfluidic off-chip mobility shift assay against BTK C481S enzyme; assay type: biochemical; settings: BTK C481S mutant
Sequence of BTK C481S (His-TEV-hsBTK(328-659)(C481S)) (Q06187 328-659 C481S): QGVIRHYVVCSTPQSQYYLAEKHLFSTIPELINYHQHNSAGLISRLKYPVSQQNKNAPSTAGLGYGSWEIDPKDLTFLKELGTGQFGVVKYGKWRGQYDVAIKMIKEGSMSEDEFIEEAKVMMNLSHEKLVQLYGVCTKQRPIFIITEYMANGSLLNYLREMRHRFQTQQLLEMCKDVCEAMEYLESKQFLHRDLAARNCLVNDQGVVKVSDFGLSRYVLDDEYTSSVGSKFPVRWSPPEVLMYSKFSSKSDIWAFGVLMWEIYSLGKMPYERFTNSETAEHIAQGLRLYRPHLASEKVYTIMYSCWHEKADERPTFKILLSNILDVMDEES
Method in brief: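 Substrate-to-phosphopeptide conversion quantified by microfluidic mobility shift with laser-induced fluorescence; IC50 and efficacy from log[inhibitor] vs. % activity.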

[2] = system: anti-IgM-induced expression of CD69 on CD19 positive cells (B cells) in human PBMCs; test: Assay C: PBMC IC50 assay (anti-IgM-induced CD69 expression); assay type: cell-based; settings: anti-IgM stimulation
Method in brief: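 Freshly isolated human PBMCs (2.5×10^5/well) pretreated 1 h with compound, then stimulated overnight (~16-18 h) with goat F(ab′)2 anti-human IgM. CD69 on CD19+ B cells measured by flow cytometry; IC50 from percentage CD69+ B cells versus concentration.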

[3] = system: IL-1β release by human THP-1 cells; test: Assay D: THP-1 cells IL-1β release ELISA assay; assay type: cell-based; settings: PMA and LPS, BzATP stimulation
Method: Assay D: THP-1 Cells IL-1β release ELISA Assay
The assay measures IL-1β release by human THP-1 cells after treatment with PMA and LPS in response to BzATP stimulation in order to evaluate the potency of P2X7 inhibitors. THP-1 cells (2×10^5 cells/mL) in culture medium (RPMI1640 (Gibco, #22400-089)+10% HI-FBS (Gibco, #10082-147)+1% L-Glutamine (Gibco, #25030)+1% Pen/Strep (Gibco, #15140) complemented with 0.5 μM PMA (Sigma, #P8139) were incubated for 30 min at 37° C. At the end of the incubation time, the cells were titrated and washed gently in PBS. The cells were then re-suspended to a density of 1.5×10^5 cell/mL in culture medium complemented with 10 ng/mL LPS (Sigma, #L5293). The cell suspension was dispensed (40 μL/well) into a Corning 384-well plate. After 4 hr of incubation at 37° C., the cells were treated with 20 μL of test compounds at various concentrations. The plate was incubated for 30 min at 37° C. and then the cells were treated with 20 μL of 3.2 mM BzATP (Sigma. #B6396) (0.8 mM final concentration). The plate was incubated for an additional 30 min at 37° C., and then subjected to centrifugation (4 min, 1000 rpm). Supernatant (60 μL) from each well was transferred to a 384-matrix PP plate. The plate was then stored at 4° C. (overnight) or −20° C. for longer term storage. The next day, the […] were measured using a human […] ELISA Kit (R & D systems, catalog #DY201) and read using a SpectraMax Plus 384 Microplate Reader.

Sequence of full-length human BTK (Q06187 whole entry): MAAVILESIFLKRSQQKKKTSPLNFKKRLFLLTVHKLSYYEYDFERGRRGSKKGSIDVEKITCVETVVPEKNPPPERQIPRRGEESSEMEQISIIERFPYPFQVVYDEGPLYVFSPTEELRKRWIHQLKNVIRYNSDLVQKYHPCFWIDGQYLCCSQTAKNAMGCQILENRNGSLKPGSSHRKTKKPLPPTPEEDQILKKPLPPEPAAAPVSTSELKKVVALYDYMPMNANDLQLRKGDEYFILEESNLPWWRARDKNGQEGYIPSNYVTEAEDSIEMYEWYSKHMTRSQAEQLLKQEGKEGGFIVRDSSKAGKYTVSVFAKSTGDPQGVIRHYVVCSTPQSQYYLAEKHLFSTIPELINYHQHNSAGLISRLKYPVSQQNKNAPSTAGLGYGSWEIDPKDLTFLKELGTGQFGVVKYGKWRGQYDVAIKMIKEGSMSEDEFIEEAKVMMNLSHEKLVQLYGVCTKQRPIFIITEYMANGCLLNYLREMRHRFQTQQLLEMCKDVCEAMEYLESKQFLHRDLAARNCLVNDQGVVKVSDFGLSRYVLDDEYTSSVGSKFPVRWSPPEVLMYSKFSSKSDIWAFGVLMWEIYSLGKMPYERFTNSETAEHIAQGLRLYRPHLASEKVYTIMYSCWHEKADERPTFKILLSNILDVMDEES

SMILES | IC50 (full-length human BTK) [nM] | IC50 [1] [nM] | IC50 [3] [nM] | IC50 [2] [nM]
Cc1c(NC(=O)c2ccc(C(C)(C)C)cc2)cccc1-c1ccnc2[nH]c(-c3ccc(C(=O)O)cc3)nc12 [Example 153, 4-{7-[3-(4-tert-Butyl-benzoylamino)-2-methyl-phenyl]-3H-imidazo[4,5-b]pyridin-2-yl}-benzoic acid] | < 100 | < 100 | 100 to 1000 | > 5000
O=C(c1ccc(-c2nc3c(-c4cccc(N5CCc6cc(C7CC7)ccc6C5=O)c4CO)ccnc3[nH]2)cc1)N1CCOCC1 [Example 6, 6-Cyclopropyl-2-(2-hydroxymethyl-3-{2-[4-(morpholine-4-carbonyl)-phenyl]-3H-imidazo[4,5-b]pyridin-7-yl}-phenyl)-3,4-dihydro-2H-isoquinolin-1-one] | < 100 | < 100 | 100 to 1000 | 1000 to 5000
Cc1c(NC(=O)c2ccc(C(C)(C)C)cc2)cccc1-c1ccnc2[nH]c(-c3ccc(C(=O)N4CCOCC4)cc3)nc12 [Example 5, 4-(tert-butyl)-N-(2-methyl-3-(2-(4-(morpholine-4-carbonyl)phenyl)-3H-imidazo[4,5-b]pyridin-7-yl)phenyl)benzamide] | – | – | < 100 | 1000 to 5000
Cn1cc(-c2nc3c(-c4ccc(CNC(=O)N5CC(OC(C)(C)C)C5)c(F)c4)ccnc3[nH]2)cn1 [Example 55, 3-(tert-Butoxy)-N-([2-fluoro-4-[2-(1-methyl-1H-pyrazol-4-yl)-3H-imidazo[4,5-b]pyridin-7-yl]phenyl]methyl)azetidine-1-carboxamide] | – | – | 1000 to 5000 | 100 to 1000

Second part, led by results:

IC50 (full-length human BTK) [nM] | IC50 [1] [nM] | IC50 [3] [nM] | SMILES | IC50 [2] [nM]
< 100 | < 100 | < 100 | CC(C)(C)c1ccc2c(c1)CCN(Cc1ccc(-c3ccnc4[nH]c(-c5ccc(C(=O)N6CCOCC6)cc5)nc34)cc1)C2=O [Example 115, 6-tert-Butyl-2-(4-{2-[4-(morpholine-4-carbonyl)-phenyl]-3H-imidazo[4,5-b]pyridin-7-yl}-benzyl)-3,4-dihydro-2H-isoquinolin-1-one] | 100 to 1000
– | – | 100 to 1000 | Cc1c(NC(=O)c2ccc(C(C)(C)C)cc2)cccc1-c1ccnc2[nH]c(-c3cnn(C)c3)nc12 [Example 9, 4-tert-Butyl-N-{2-methyl-3-[2-(1-methyl-1H-pyrazol-4-yl)-3H-imidazo[4,5-b]pyridin-7-yl]-phenyl}-benzamide] | 1000 to 5000
< 100 | < 100 | < 100 | CC(C)(C)c1ccc(C(=O)NCc2ccc(-c3ccnc4[nH]c(-c5ccc(C(=O)N6CCOCC6)cc5)nc34)cc2F)cc1 [Example 118, 4-tert-Butyl-N-(2-fluoro-4-{2-[4-(morpholine-4-carbonyl)-phenyl]-3H-imidazo[4,5-b]pyridin-7-yl}-benzyl)-benzamide] | < 100
< 100 | – | 100 to 1000 | CN1CC=C(c2ccc(-c3nc4c(-c5cccc(N6CCOc7cc(C8CC8)cc(F)c7C6=O)c5CO)ccnc4[nH]3)cc2)CC1 [Example 3, 8-Cyclopropyl-6-fluoro-4-[2-(hydroxymethyl)-3-[2-[4-(1-methyl-1,2,3,6-tetrahydropyridin-4-yl)phenyl]-3H-imidazo[4,5-b]pyridin-7-yl]phenyl]-2,3,4,5-tetrahydro-1,4-benzoxazepin-5-one] | 100 to 1000
